Publication PMC5438914 (SLAS discovery, 2016)
Like-named read-outs stand apart in the source and are kept apart here.

Tests used:
[1] = tested on: human embryonic kidney 293 cells (HEK-293)
[2] = tested on: EF-Tu, EF-Ts, EF-G, and PheRS; experiment: specificity assays against the accessory proteins of the A/T system; assay type: biochemical, Pseudomonas aeruginosa; conditions: tested against each of the four accessory proteins
[3] = tested on: H. influenzae; experiment: time-kill experiments; conditions: 4× MIC; for bacteriostatic or bactericidal: 0 to 24 h
[4] = tested on: S. aureus; experiment: time-kill experiments; conditions: 4× MIC; for bacteriostatic or bactericidal: 0 to 24 h
[5] = tested on: human embryonic kidney 293 cells (HEK-293); experiment: MTT cytotoxicity test; conditions: HEK-293, MTT, 24 h
[6] = target: T1, PheRS (Pseudomonas aeruginosa, UniProt Q9I0A3+Q9I0A4); experiment: competition assays with PheRS substrates ATP and Phe; assay type: biochemical; conditions: IC50 at ATP 25-1000 µM or Phe 25-300 µM; data not shown
T1 sequence (Q9I0A3 whole entry): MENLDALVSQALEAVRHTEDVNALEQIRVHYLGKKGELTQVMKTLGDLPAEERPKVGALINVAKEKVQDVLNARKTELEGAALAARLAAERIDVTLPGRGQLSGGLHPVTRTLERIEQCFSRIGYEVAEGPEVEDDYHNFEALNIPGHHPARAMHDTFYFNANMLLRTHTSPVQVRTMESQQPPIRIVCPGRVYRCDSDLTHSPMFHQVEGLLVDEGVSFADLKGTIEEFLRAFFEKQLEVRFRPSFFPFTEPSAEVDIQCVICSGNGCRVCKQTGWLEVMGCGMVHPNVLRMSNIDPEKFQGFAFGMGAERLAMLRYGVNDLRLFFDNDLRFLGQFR
T1 sequence (Q9I0A4 whole entry): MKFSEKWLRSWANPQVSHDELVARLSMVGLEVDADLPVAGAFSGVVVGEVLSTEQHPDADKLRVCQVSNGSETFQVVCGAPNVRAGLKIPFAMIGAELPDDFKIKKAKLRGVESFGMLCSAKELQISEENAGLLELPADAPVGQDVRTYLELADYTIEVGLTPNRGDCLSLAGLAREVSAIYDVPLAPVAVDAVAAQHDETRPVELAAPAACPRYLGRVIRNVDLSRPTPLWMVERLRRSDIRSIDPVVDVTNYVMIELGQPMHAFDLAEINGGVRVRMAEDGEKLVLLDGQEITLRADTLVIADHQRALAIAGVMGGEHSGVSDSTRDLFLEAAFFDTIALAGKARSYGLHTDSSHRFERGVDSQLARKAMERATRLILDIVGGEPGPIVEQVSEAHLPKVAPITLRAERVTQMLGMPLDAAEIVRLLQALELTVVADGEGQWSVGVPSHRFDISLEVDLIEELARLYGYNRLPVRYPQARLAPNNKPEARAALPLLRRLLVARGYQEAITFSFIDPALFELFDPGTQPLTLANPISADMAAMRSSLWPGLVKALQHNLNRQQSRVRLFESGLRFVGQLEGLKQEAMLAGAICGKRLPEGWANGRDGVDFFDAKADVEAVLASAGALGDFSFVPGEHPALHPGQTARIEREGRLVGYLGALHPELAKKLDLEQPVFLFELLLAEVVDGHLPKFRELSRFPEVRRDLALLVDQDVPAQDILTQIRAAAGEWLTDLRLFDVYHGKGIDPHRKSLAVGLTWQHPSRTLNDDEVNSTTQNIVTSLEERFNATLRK

[7] = target: T1, PheRS; experiment: tRNA aminoacylation assay; assay type: biochemical
[8] = target: T2, human mitochondrial PheRS (hmPheRS) (Homo sapiens, UniProt O95363); experiment: hmPheRS aminoacylation assay; assay type: biochemical; conditions: 0.4 to 200 µM; at high concentrations
T2 sequence (O95363 1-451): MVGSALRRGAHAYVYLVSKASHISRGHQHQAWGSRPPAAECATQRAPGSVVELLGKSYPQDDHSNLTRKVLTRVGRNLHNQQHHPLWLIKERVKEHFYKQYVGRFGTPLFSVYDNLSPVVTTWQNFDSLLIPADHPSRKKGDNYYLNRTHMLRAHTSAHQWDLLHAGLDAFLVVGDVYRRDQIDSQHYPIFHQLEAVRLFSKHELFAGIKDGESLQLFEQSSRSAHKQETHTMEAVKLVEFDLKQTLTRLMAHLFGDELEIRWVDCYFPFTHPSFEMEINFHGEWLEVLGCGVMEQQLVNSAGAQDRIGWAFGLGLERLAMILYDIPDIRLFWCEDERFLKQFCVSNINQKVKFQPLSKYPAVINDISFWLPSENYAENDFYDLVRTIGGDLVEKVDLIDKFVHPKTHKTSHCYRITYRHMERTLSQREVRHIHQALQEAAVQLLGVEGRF

[9] = tested on: eukaryotic protein synthesis in wheat germ cell extract; experiment: wheat germ cell extract poly-Phe protein synthesis assay; assay type: biochemical; conditions: at 30 µM

N=C(N)NN=C(/C=C/c1ccc([N+](=O)[O-])o1)/C=C/c1ccc([N+](=O)[O-])o1 [BT06D07, difurazone]
IC50 (or CC50) for inhibition of cell growth [1]: > 400 mg/L
specificity for a single component of the A/T assay [2]: did not inhibit an accessory protein
bacteriostatic or bactericidal [3]: bactericidal
growth in time-kill cultures ([3]; up to 24 h): inhibited the growth of both bacteria completely during all times tested
bacteriostatic or bactericidal [4]: bactericidal
growth in time-kill cultures ([4]; up to 24 h): inhibited the growth of both bacteria completely during all times tested

O=C(N/N=C/c1ccc([N+](=O)[O-])o1)c1cc([N+](=O)[O-])cc([N+](=O)[O-])c1O [BT06G06, nifursol]
specificity for a single component of the A/T assay [2]: specifically inhibit PheRS
bacteriostatic or bactericidal [3]: bacteriostatic
decrease in colony-forming units (CFU) compared with the control ([3]; during the first 6 h): 2 to 4 log10
bacteriostatic or bactericidal [4]: bacteriostatic
decrease in colony-forming units (CFU) compared with the control ([4]; during the first 6 h): 2 to 4 log10
IC50 (or CC50) for inhibition of cell growth [5]: 18.5 mg/L
mechanism of inhibition with respect to ATP and Phe [6]: noncompetitive with both of the natural substrates
IC50 [7]: 60.5 µM
effect on the activity of hmPheRS [8]: only modestly affected

C[C@@H]1C[C@@H]([C@H](O)CC2CC(=O)NC(=O)C2)C(=O)[C@@H](C)C1 [cycloheximide]
inhibition of protein synthesis [9]: greater than 80%
